Reference: paper PMC3408963 (Bioorganic & medicinal chemistry, 2012)

Assays:
COX-2 = molecular target: T1, COX-2 (Homo sapiens, UniProt P35354); assay type: biochemical; conditions: for COX-2 inhibition, result in words: initial screen at 25 μM / relevant concentration range; for IC50: read-out: IC50 COX-2, radioactivity assay, pre-incubation 17 min at 25 °C and 3 min at 37 °C, 50 μM [14C]-AA for 30 sec, average of at least two independent experiments
T1 sequence (P35354 18-604): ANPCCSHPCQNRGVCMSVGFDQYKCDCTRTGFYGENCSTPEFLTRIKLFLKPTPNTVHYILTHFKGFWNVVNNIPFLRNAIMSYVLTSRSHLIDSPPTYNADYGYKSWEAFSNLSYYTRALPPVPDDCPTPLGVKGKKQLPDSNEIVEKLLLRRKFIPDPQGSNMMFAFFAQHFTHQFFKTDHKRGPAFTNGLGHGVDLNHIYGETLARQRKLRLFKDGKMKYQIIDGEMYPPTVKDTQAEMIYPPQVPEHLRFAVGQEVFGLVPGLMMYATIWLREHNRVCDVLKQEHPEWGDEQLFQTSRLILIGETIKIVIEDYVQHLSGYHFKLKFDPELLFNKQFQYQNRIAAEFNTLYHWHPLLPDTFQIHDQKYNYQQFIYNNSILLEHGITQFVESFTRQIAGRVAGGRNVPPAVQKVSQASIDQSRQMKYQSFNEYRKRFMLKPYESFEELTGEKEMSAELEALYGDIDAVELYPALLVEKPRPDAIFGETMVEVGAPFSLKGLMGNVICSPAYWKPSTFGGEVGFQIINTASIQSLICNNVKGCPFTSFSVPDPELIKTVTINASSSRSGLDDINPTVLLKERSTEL

COX-1 = COX-1 (Homo sapiens, UniProt P23219); assay type: biochemical; conditions: for COX-1 inhibition, result in words: initial screen at 25 μM / relevant concentration range; for IC50: read-out: IC50 COX-1, radioactivity assay, pre-incubation 17 min at 25 °C and 3 min at 37 °C, 50 μM [14C]-AA for 30 sec, average of at least two independent experiments
Chain of COX-1 (P23219 24-599): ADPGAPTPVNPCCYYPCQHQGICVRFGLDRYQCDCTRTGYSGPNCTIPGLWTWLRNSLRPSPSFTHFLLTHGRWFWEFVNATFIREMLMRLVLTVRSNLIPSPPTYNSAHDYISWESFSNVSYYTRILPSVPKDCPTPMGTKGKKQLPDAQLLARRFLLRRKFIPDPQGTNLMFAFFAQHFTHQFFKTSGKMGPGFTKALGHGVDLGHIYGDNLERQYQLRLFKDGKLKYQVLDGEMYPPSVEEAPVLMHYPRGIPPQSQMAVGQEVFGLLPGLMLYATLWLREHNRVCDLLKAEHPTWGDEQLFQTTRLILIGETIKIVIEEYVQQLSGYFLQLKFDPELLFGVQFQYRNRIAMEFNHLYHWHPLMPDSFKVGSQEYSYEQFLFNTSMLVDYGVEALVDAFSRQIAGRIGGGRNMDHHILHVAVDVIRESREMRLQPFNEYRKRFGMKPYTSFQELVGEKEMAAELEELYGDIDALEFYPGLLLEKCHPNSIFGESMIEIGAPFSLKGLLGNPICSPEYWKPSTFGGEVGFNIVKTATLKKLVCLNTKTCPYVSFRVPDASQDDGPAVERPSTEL

Row | Compound | COX-2 inhibition, result in words (COX-2) | IC50 (COX-2) | COX-1 inhibition, result in words (COX-1) | IC50 (COX-1)
1 | 1-(1-Carboxy-1,2-dicarba-closo-dodecaboran(12)yl)-5-methoxy-2-methyl-1H-indole-3-acetic acid [Compound 4o] | exclusively inhibited COX-2 | 3.68 µM | not COX-1 | > 25 µM
2 | 1-(1-Carboxy-1,2-dicarba-closo-dodecaboran(12)yl)-5-methoxy-2-methyl-1H-indole-3-acetic acid tert-butyl ester [Compound 3o] | exclusively inhibited COX-2 | 1.41 µM | not COX-1 | > 25 µM
3 | COC(=O)Cc1c(C)n(C(=O)c2ccc(Cl)cc2)c2ccc(OC)cc12 [Compound 1i, Indomethacin methyl ester, reference compound] |  |  |  | > 25 µM

The next compounds have a lower IC50 (COX-1) than those just listed; values first:

Row | COX-2 inhibition, result in words (COX-2) | IC50 (COX-2) | COX-1 inhibition, result in words (COX-1) | IC50 (COX-1) | Compound
4 |  | 11.6 µM | also inhibited COX-1 | 15.1 µM | 1-(1-Carboxy-1,2-dicarba-closo-dodecaboran(12)yl)-5-methoxy-2-methyl-1H-indole-3-acetic acid benzyl ester [Compound 2o]
5 |  | 0.084 µM | also inhibited COX-1 | 12.8 µM | 1-(1-Carboxy-1,2-dicarba-closo-dodecaboran(12)yl)-5-methoxy-2-methyl-1H-indole-3-acetic acid methyl ester [Compound 1o]
